Test results from patent US10724044B2, “Reversible genic male sterility in compositae” (priority 2013, dated 2020).
Entries after “also recorded” stand apart in the source; their conditions may differ.

Experiments:
[1] = system: homozygous mutant lettuce plant (Lactuca sativa), having a mutated version of the OPR3 gene; assay: Reversal of male sterility in homozygous OPR3 mutant lettuce by spraying young flower buds; assay type: in vivo; details: for restoration of male fertility in the F2 generation: F2 of cross of NCIMB 42060 plants with wild type lettuce, treatment as in Example 1; for seed production through selfing: 200 μM spray on inflorescences from early bolting stage, versus mock-treated controls (FIG. 1)
Excerpt: A mutant lettuce plant (Lactuca sativa), having a mutated version of the OPR3 gene, was obtained by means of chemical mutagenesis and subsequent TILLING screening of about 3,000 M2 plants.
Phenotypically this mutant lettuce plant was indistinguishable from wild type lettuce plants, when the mutation was present in a heterozygous state. […] The few pollen grains that developed in such homozygous mutants were not functional.
From the early bolting stage the inflorescences were sprayed 5 times per week, for a total of 3 weeks.

[2] = system: homozygous mutant endive plant (Cichorium endivia), having a mutated version of the OPR3 gene; assay: Reversal of male sterility in homozygous OPR3 mutant endive by treating young flower buds; assay type: in vivo; details: for restoration of male fertility in the F2 generation: F2 of cross of endive plants of the invention with wild type endive, treatment as in Example 3; for male fertility (functional pollen, seed set through self-pollination): homozygous mutants, controls remained male sterile; for male fertility (functional pollen, seed set through self-pollination) / flower colour of flowers developed from treated buds: 200 μM (0.2 mM) with 0.025% Zipper surfactant sprayed daily on young flower buds; for flower colour of flowers developed from treated buds: homozygous mutants (pale flowers untreated), about 3.5 months
Excerpt: A mutant endive plant (Cichorium endivia), having a mutated version of the OPR3 gene, was obtained by means of chemical mutagenesis and subsequent TILLING screening of about 10,000 M2 plants.
Phenotypically this mutant endive plant was indistinguishable from wild type endive plants, when the mutation was present in a heterozygous state. […] The pollen grains that developed in such homozygous mutants were unable to germinate and therefore dysfunctional.
Blue was the wild type flower colour in this endive background.

[3] = system: Arabidopsis thaliana with mutations in the OPR3 gene; details: Arabidopsis OPR3 mutants, flower buds treated; cited from earlier work

SMILES	restoration of male fertility in the F2 generation [1]	restoration of male fertility in the F2 generation [2]	male fertility (functional pollen, seed set through self-pollination) [2]	restoration of male fertility ([1]; homozygous mutants, 200 μM (0.2 mM) aqueous solution plus 0.025% Zipper surfactant sprayed on young flower buds, 5 times per week for 3 weeks)	seed production through selfing ([1]; homozygous mutants)	seed production through selfing ([1]; homozygous mutants, listed as MeJA)	flower colour of flowers developed from treated buds [2]	flower colour of flowers developed from treated buds ([2]; listed as MeJA)	male fertility (functional pollen, seed set through self-pollination) ([2]; listed as MeJA)	effect of other application methods than spraying ([2]; solution painted onto the surface of young flower buds with a fine brush)	restoration of male fertility [3]
CC/C=C\C[C@H]1C(=O)CC[C@@H]1CC(=O)O [jasmonic acid, (3R,7S)-jasmonic acid]	sufficient to restore male fertility	sufficient to restore male fertility	had the same effect	–	–	–	–	–	–	–	–
CC/C=C\CC1C(=O)CCC1CC(=O)OC (centres unmarked) [methyl jasmonate]	sufficient to restore male fertility	sufficient to restore male fertility	it has become male-fertile	sufficient to restore male fertility	has produced seeds through selfing	produced seeds in a subset of their flowers	Its colour has changed to blue	developed into blue flowers	produced viable, functional pollen and were able to set seed through self-pollination; also recorded: could be overcome	comparable effects	could be restored
